# The supplement of paper PMC10307832
# Experiments:
# Assay in all cases: relative viability (nuclei count vs DMSO), 5 days (fraction); higher = more cells survive
# XMD13-2 + Bortezomib = compound: C1CC1C(=O)NC2=NNC3=C2C=CC(=C3)C4=CC(=CC=C4)C(=O)NC5CC5 [XMD13-2] + CC(C)C[C@H](NC(=O)[C@H](Cc1ccccc1)NC(=O)c1cnccn1)B(O)O [Bortezomib] (partner 0.002 µM)
# How it was run: (§1)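 Relative viability divides the nuclei count in treated wells by that in vehicle wells. Lung cancer cell lines were seeded in 1536-well plates, dosed by pin tool the next day, and fixed and stained after 5 days in one step with final 0.05% Triton X-100, 1% formaldehyde and 1 ug/ml Hoechst. Dosing was a single drug or a fixed anchor-drug dose plus five library-drug doses (not always all listed) in √10 steps, and values are medians of duplicate plates imaged at 4×.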
# XMD13-2 + AZD7762 = compound: C1CC1C(=O)NC2=NNC3=C2C=CC(=C3)C4=CC(=CC=C4)C(=O)NC5CC5 [XMD13-2] + NC(=O)Nc1cc(-c2cccc(F)c2)sc1C(=O)N[C@H]1CCCNC1 [AZD7762] (partner 0.2 µM)
# How it was run: as §1
# [1] = compound: Cc1ccc(C(=O)Nc2cccc(C(F)(F)F)c2)cc1Nc1cncc(C(N)=O)c1 [ALW-II-49-7] + CC(=O)c1c(C)c2cnc(Nc3ccc(N4CCNCC4)cn3)nc2n(C2CCCC2)c1=O [Palbociclib] (partner 0.5 µM)
# How it was run: as §1
# ALW-II-49-7 + Dasatinib = compound: Cc1ccc(C(=O)Nc2cccc(C(F)(F)F)c2)cc1Nc1cncc(C(N)=O)c1 [ALW-II-49-7] + Cc1nc(Nc2ncc(C(=O)Nc3c(C)cccc3Cl)s2)cc(N2CCN(CCO)CC2)n1 [Dasatinib] (partner 0.075 µM)
# How it was run: as §1
Cell Line,relative viability (XMD13-2 + Bortezomib; first compound 0.05 µM),relative viability (XMD13-2 + Bortezomib; first compound 0.1581 µM),relative viability (XMD13-2 + Bortezomib; first compound 0.5 µM),relative viability (XMD13-2 + Bortezomib; first compound 1.581 µM),relative viability (XMD13-2 + Bortezomib; first compound 5 µM),relative viability (XMD13-2 + AZD7762; first compound 0.05 µM),relative viability (XMD13-2 + AZD7762; first compound 0.1581 µM),relative viability (XMD13-2 + AZD7762; first compound 0.5 µM),relative viability (XMD13-2 + AZD7762; first compound 1.581 µM),relative viability (XMD13-2 + AZD7762; first compound 5 µM),relative viability ([1]; first compound 0.08 µM),relative viability ([1]; first compound 0.253 µM),relative viability ([1]; first compound 0.8 µM),relative viability ([1]; first compound 2.53 µM),relative viability ([1]; first compound 8 µM),relative viability (ALW-II-49-7 + Dasatinib; first compound 0.08 µM),relative viability (ALW-II-49-7 + Dasatinib; first compound 0.253 µM),relative viability (ALW-II-49-7 + Dasatinib; first compound 0.8 µM),relative viability (ALW-II-49-7 + Dasatinib; first compound 2.53 µM),relative viability (ALW-II-49-7 + Dasatinib; first compound 8 µM)
NCI-H2085,1.09,1.07,1.15,0.93,1.1,0.993,0.995,1.04,0.848,1.09,0.441,0.448,0.466,0.432,0.454,0.236,0.168,0.239,0.215,0.213
NCI-H2087,0.917,1.25,1.08,0.782,0.856,1.31,1.39,1.62,1.3,1.49,0.227,0.261,0.239,0.255,0.22,0.924,0.784,0.825,0.978,0.753
NCI-H2126,1.16,1.09,1.18,1.05,1.13,1.1,1.04,0.98,1.04,0.996,0.367,0.332,0.337,0.365,0.374,0.534,0.638,0.586,0.52,0.457
NCI-H2347,1.02,0.977,1.09,0.952,1.09,0.971,0.759,0.888,0.735,0.822,0.528,0.452,0.43,0.432,0.478,0.264,0.302,0.301,0.34,0.356
NCI-H2405,1.07,0.964,0.957,0.926,0.991,0.849,0.712,0.728,,0.8,0.507,0.591,0.488,0.532,0.468,0.207,0.216,0.219,0.208,0.173
NCI-H3122,1.06,1.05,1.02,1.1,0.985,1.01,0.973,1.1,1,0.899,0.223,0.212,0.191,0.397,0.227,0.83,0.81,0.737,0.891,0.834
PC-3 [JPC-3],0.807,0.778,0.884,0.871,0.867,0.818,0.868,0.9,,0.718,0.536,0.595,0.546,0.561,0.558,0.827,0.916,0.929,0.951,0.854
PC-14,0.903,0.888,0.828,0.806,0.916,0.392,0.337,0.464,0.329,0.446,0.454,0.568,0.471,0.551,0.41,0.202,0.3,0.242,0.227,0.192
RERF-LC-KJ,1.08,1.05,1.2,0.97,1.14,1.07,0.874,1.22,0.922,0.956,1.04,1.07,1.04,0.998,1.08,0.827,0.815,0.951,0.665,0.741
